Source: PMC4245164 (ACS Chemical Biology, 2014)

Target: NLuc (Oplophorus gracilirostris, UniProt Q9GV45, A31E/A60N/A81I/F95D/I117V/K70R/L54V/L99Q/M102K/N193R/P142E/Q151K/Q38R/Q45L/V71I/Y165I)
Test: Biochemical NLuc enzyme assay with S16 secNLuc cell culture medium

Sequence of NLuc (Q9GV45 28-196 with the stated changes): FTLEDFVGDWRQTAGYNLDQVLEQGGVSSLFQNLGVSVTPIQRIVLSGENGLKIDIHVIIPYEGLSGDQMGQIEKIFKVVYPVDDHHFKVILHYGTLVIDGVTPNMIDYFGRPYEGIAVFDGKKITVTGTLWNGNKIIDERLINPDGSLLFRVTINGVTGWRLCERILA

| SMILES | IC50 [µM] |
| --- | --- |
| CCOC(=O)C1=C(C)NC(C)=C(C(=O)OC)C1c1cccc([N+](=O)[O-])c1 (centres unmarked) [nitrendipine] | 6 |
| COC(=O)C1=C(C)NC(C)=C(C(=O)OC(C)C)C1c1cccc2nonc12 (centres unmarked) [isradipine] | 6 |
